Assay results as given in article PMC10116527 (ACS Omega, 2023).
Where two headings read alike, the source gives them in different places.

Key:
[1] = target: T1, PI3Kα (Homo sapiens, UniProt P42336); test: Adapta universal kinase assay; type: biochemical; details: read-out: % inhibition against PI3Kα enzyme ± SD ^b
[2] = target: T1, PI3Kα; test: Adapta universal kinase assay; type: biochemical; details: read-out: % inhibition against PI3Kα enzyme ± SD ^b; remark: listed apart in the source

T1 sequence (P42336 whole entry): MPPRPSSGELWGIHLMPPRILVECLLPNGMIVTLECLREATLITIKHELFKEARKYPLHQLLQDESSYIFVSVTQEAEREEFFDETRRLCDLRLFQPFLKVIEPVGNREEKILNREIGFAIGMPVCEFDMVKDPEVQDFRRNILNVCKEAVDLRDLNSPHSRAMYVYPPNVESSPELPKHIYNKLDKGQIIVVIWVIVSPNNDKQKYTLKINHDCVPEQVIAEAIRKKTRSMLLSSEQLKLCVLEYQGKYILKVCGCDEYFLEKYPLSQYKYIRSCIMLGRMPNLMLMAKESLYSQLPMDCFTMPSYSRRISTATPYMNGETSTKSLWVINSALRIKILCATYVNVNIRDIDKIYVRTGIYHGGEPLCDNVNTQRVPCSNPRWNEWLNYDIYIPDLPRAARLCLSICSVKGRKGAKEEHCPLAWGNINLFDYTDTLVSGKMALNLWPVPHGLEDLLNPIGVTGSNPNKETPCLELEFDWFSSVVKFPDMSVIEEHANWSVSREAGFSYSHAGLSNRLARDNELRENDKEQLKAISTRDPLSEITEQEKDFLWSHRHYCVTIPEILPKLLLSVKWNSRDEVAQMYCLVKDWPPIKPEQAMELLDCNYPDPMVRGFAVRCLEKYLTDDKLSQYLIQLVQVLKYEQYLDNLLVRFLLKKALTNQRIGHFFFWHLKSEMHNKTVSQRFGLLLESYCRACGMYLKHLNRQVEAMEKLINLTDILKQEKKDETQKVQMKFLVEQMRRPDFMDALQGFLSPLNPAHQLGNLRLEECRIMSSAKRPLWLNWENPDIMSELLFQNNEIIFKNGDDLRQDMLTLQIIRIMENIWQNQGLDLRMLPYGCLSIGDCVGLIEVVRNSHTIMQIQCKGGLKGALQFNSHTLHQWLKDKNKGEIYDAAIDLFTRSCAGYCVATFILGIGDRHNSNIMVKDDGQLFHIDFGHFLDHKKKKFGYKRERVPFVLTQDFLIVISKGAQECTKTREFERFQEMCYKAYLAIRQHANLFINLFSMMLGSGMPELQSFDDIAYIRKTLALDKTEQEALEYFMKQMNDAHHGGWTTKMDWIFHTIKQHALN
T1 sequence (P27986 2-724, further chain): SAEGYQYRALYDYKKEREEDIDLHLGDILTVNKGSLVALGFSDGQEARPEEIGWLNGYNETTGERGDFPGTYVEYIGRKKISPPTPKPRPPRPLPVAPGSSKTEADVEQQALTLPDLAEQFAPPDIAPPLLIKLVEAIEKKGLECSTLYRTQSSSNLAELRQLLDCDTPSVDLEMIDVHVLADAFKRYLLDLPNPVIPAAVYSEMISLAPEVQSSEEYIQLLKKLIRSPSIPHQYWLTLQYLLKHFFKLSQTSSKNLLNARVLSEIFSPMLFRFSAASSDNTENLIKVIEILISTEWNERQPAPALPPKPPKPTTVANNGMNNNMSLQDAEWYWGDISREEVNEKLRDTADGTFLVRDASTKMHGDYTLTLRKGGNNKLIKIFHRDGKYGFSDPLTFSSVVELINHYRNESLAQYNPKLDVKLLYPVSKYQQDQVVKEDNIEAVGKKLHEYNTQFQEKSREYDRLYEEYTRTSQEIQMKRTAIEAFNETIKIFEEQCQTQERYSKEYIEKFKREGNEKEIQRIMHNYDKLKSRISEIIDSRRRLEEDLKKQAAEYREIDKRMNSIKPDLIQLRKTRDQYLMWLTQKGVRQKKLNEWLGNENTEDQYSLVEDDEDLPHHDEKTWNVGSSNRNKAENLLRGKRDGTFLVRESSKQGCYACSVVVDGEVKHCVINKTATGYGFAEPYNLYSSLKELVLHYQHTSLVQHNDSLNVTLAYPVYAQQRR

| inhibition at 100 µM [1] [%] | inhibition at 100 µM [2] [%] | SMILES |
| --- | --- | --- |
| 46 |  | CCN(CC)c1nc(NCc2ccccc2)nc(Nc2ccc(S(=O)(=O)Nc3ccccn3)cc2)n1 [compound 20, 4-{[4-(Benzylamino)-6-(diethylamino)-1,3,5-triazin-2-yl]amino}-N-(pyridin-2-yl)benzene-1-sulfonamide] |
|  | 68 ± 3 | CCN(CC)c1nc(Nc2ccc(S(=O)(=O)NC(=N)N)cc2)nc(N2CCOCC2)n1 [compound 34, 1-(4-{[4-(Diethylamino)-6-(morpholin-4-yl)-1,3,5-triazin-2-yl]amino}benzene-sulfonyl)guanidine] |
